From patent US20210254272A1, “TEXTILES HAVING ANTIMICROBIAL PROPERTIES” (Livinguard AG, priority 2015, published 2021)

Tested on: E. coli (ATCC 25922)
Experiment: AATCC Test Method 100-2012 antibacterial activity of the treated textile, after 25 washes and 12 abrasion cycles, contact time 60 minutes
Type: cell-based
Conditions: for Performance Test-Log reduction of antimicrobial performance: pad process, 2 min
Method: The antibacterial activity of the textile was tested in accordance with AATCC Test Method 100-2012. Prior to the test, the fabric was cut into coupons of 2×4 inches and washed separately 25 times, and exposed to 12 abrasion cycles, as per US EPA protocol 90072PA4 (described further below). The tests were made against E. coli (ATCC 25922). Contact time was 60 minutes, after inoculating with 10^8 CFU per coupon.

Silver
Performance Test-Log reduction of antimicrobial performance (single agent 5 gm/lit, curing 180° C.): 1.11 Log
Performance Test-Log reduction of antimicrobial performance (single agent 10 gm/lit, curing 120° C.): 0.37 Log
Performance Test-Log reduction of antimicrobial performance (single agent 10 gm/lit, curing 140° C.): 0.48 Log
Performance Test-Log reduction of antimicrobial performance (single agent 10 gm/lit, curing 150° C.): 0.58 Log
Performance Test-Log reduction of antimicrobial performance (single agent 10 gm/lit, curing 160° C.): 0.95 Log
Performance Test-Log reduction of antimicrobial performance (single agent 10 gm/lit, curing 180° C.): 2.11 Log
Log reduction of antimicrobial performance (pure cotton fabric, exhaust 80° C., 60 min, dosage 0.1% o.w.f): 0.55 Log
Log reduction of antimicrobial performance (pure cotton fabric, exhaust 80° C., 60 min, dosage 0.2% o.w.f): 1.35 Log
Log reduction of antimicrobial performance (pure cotton fabric, exhaust 80° C., 60 min, dosage 0.5% o.w.f): 1.67 Log
Log reduction of antimicrobial performance (pure cotton fabric, exhaust 80° C., 60 min, dosage 0.8% o.w.f): 1.84 Log
Log reduction of antimicrobial performance (pure cotton fabric, exhaust 80° C., 60 min, dosage 1.0% o.w.f): 2.87 Log
Log reduction of antimicrobial performance (pure cotton, exhaust 80° C., 1% o.w.f, 60 min, curing 180° C., curing dwell time 0.5 min): 0.4 Log
Log reduction of antimicrobial performance (pure cotton, exhaust 80° C., 1% o.w.f, 60 min, curing 180° C., curing dwell time 1.0 min): 0.6 Log
Log reduction of antimicrobial performance (pure cotton, exhaust 80° C., 1% o.w.f, 60 min, curing 180° C., curing dwell time 1.5 min): 1.4 Log
Log reduction of antimicrobial performance (pure cotton, exhaust 80° C., 1% o.w.f, 60 min, curing 180° C., curing dwell time 2.0 min): 2.9 Log
Log reduction of antimicrobial performance (pure cotton, exhaust 80° C., 1% o.w.f, 60 min, curing 180° C., curing dwell time 2.5 min): 2.2 Log
Log reduction of antimicrobial performance (pure cotton, exhaust 80° C., 1% o.w.f, 60 min, curing 180° C., curing dwell time 3.0 min): 1.2 Log
Log reduction of antimicrobial performance (pure polyester fabric, exhaust 80° C., 60 min, curing 180° C., curing dwell time 0.5 min): 0.5 Log
Log reduction of antimicrobial performance (pure polyester fabric, exhaust 80° C., 60 min, curing 180° C., curing dwell time 1.0 min): 0.9 Log
Log reduction of antimicrobial performance (pure polyester fabric, exhaust 80° C., 60 min, curing 180° C., curing dwell time 1.5 min): 1.4 Log
Log reduction of antimicrobial performance (pure polyester fabric, exhaust 80° C., 60 min, curing 180° C., curing dwell time 2.0 min): 2.68 Log
Log reduction of antimicrobial performance (pure polyester fabric, exhaust 80° C., 60 min, curing 180° C., curing dwell time 2.5 min): 2.21 Log
Log reduction of antimicrobial performance (pure polyester fabric, exhaust 80° C., 60 min, curing 180° C., curing dwell time 3.0 min): 1.2 Log
Log reduction of antimicrobial performance (pure polyester fabric, exhaust 80° C., 60 min, dosage 0.1% o.w.f): 0.55 Log
Log reduction of antimicrobial performance (pure polyester fabric, exhaust 80° C., 60 min, dosage 0.2% o.w.f): 1.43 Log
Log reduction of antimicrobial performance (pure polyester fabric, exhaust 80° C., 60 min, dosage 0.5% o.w.f): 1.78 Log
Log reduction of antimicrobial performance (pure polyester fabric, exhaust 80° C., 60 min, dosage 0.8% o.w.f): 1.83 Log
Log reduction of antimicrobial performance (pure polyester fabric, exhaust 80° C., 60 min, dosage 1.0% o.w.f): 2.67 Log
Log reduction of antimicrobial performance (solution dosage 0.10% o.w.f, exhaust temperature 40° C., process time 60 min): 0 Log
Log reduction of antimicrobial performance (solution dosage 0.10% o.w.f, exhaust temperature 60° C., process time 60 min): 0 Log
Log reduction of antimicrobial performance (solution dosage 0.10% o.w.f, exhaust temperature 65° C., process time 60 min): 0 Log
Log reduction of antimicrobial performance (solution dosage 0.10% o.w.f, exhaust temperature 70° C., process time 60 min): 0 Log
Log reduction of antimicrobial performance (solution dosage 0.10% o.w.f, exhaust temperature 75° C., process time 60 min): 0.21 Log
Log reduction of antimicrobial performance (solution dosage 0.10% o.w.f, exhaust temperature 80° C., process time 60 min): 0.53 Log
Log reduction of antimicrobial performance (solution dosage 0.10% o.w.f, exhaust temperature 85° C., process time 60 min): 0.67 Log
Log reduction of antimicrobial performance (solution dosage 0.10% o.w.f, exhaust temperature 90° C., process time 60 min): 0.68 Log
Log reduction of antimicrobial performance (solution dosage 0.10% o.w.f, exhaust temperature 95° C., process time 60 min): 0.68 Log
Log reduction of antimicrobial performance (solution dosage 0.20% o.w.f, exhaust temperature 40° C., process time 60 min): 0 Log
Log reduction of antimicrobial performance (solution dosage 0.20% o.w.f, exhaust temperature 60° C., process time 60 min): 0.11 Log
Log reduction of antimicrobial performance (solution dosage 0.20% o.w.f, exhaust temperature 65° C., process time 60 min): 0.12 Log
Log reduction of antimicrobial performance (solution dosage 0.20% o.w.f, exhaust temperature 70° C., process time 60 min): 0.17 Log
Log reduction of antimicrobial performance (solution dosage 0.20% o.w.f, exhaust temperature 75° C., process time 60 min): 0.87 Log
Log reduction of antimicrobial performance (solution dosage 0.20% o.w.f, exhaust temperature 80° C., process time 60 min): 1.32 Log
Log reduction of antimicrobial performance (solution dosage 0.20% o.w.f, exhaust temperature 85° C., process time 60 min): 1.45 Log
Log reduction of antimicrobial performance (solution dosage 0.20% o.w.f, exhaust temperature 90° C., process time 60 min): 1.46 Log
Log reduction of antimicrobial performance (solution dosage 0.20% o.w.f, exhaust temperature 95° C., process time 60 min): 1.46 Log
Log reduction of antimicrobial performance (solution dosage 0.50% o.w.f, exhaust temperature 40° C., process time 60 min): 0 Log
Log reduction of antimicrobial performance (solution dosage 0.50% o.w.f, exhaust temperature 60° C., process time 60 min): 0.23 Log
Log reduction of antimicrobial performance (solution dosage 0.50% o.w.f, exhaust temperature 65° C., process time 60 min): 0.13 Log
Log reduction of antimicrobial performance (solution dosage 0.50% o.w.f, exhaust temperature 70° C., process time 60 min): 0.18 Log
Log reduction of antimicrobial performance (solution dosage 0.50% o.w.f, exhaust temperature 75° C., process time 60 min): 1.05 Log
Log reduction of antimicrobial performance (solution dosage 0.50% o.w.f, exhaust temperature 80° C., process time 60 min): 1.56 Log
Log reduction of antimicrobial performance (solution dosage 0.50% o.w.f, exhaust temperature 85° C., process time 60 min): 1.76 Log
Log reduction of antimicrobial performance (solution dosage 0.50% o.w.f, exhaust temperature 90° C., process time 60 min): 1.78 Log
Log reduction of antimicrobial performance (solution dosage 0.50% o.w.f, exhaust temperature 95° C., process time 60 min): 1.78 Log
Log reduction of antimicrobial performance (solution dosage 0.80% o.w.f, exhaust temperature 40° C., process time 60 min): 0 Log
Log reduction of antimicrobial performance (solution dosage 0.80% o.w.f, exhaust temperature 60° C., process time 60 min): 0.36 Log
Log reduction of antimicrobial performance (solution dosage 0.80% o.w.f, exhaust temperature 65° C., process time 60 min): 0.37 Log
Log reduction of antimicrobial performance (solution dosage 0.80% o.w.f, exhaust temperature 70° C., process time 60 min): 0.42 Log
Log reduction of antimicrobial performance (solution dosage 0.80% o.w.f, exhaust temperature 75° C., process time 60 min): 1.13 Log
Log reduction of antimicrobial performance (solution dosage 0.80% o.w.f, exhaust temperature 80° C., process time 60 min): 1.84 Log
Log reduction of antimicrobial performance (solution dosage 0.80% o.w.f, exhaust temperature 85° C., process time 60 min): 1.94 Log
Log reduction of antimicrobial performance (solution dosage 0.80% o.w.f, exhaust temperature 90° C., process time 60 min): 1.95 Log
Log reduction of antimicrobial performance (solution dosage 0.80% o.w.f, exhaust temperature 95° C., process time 60 min): 1.95 Log
Log reduction of antimicrobial performance (solution dosage 1.00% o.w.f, exhaust temperature 40° C., process time 60 min): 0 Log
Log reduction of antimicrobial performance (solution dosage 1.00% o.w.f, exhaust temperature 60° C., process time 60 min): 0.41 Log
Log reduction of antimicrobial performance (solution dosage 1.00% o.w.f, exhaust temperature 65° C., process time 60 min): 0.42 Log
Log reduction of antimicrobial performance (solution dosage 1.00% o.w.f, exhaust temperature 70° C., process time 60 min): 0.52 Log
Log reduction of antimicrobial performance (solution dosage 1.00% o.w.f, exhaust temperature 75° C., process time 60 min): 1.23 Log
Log reduction of antimicrobial performance (solution dosage 1.00% o.w.f, exhaust temperature 80° C., process time 60 min): 2.78 Log
Log reduction of antimicrobial performance (solution dosage 1.00% o.w.f, exhaust temperature 85° C., process time 60 min): 2.85 Log
Log reduction of antimicrobial performance (solution dosage 1.00% o.w.f, exhaust temperature 90° C., process time 60 min): 2.86 Log
Log reduction of antimicrobial performance (solution dosage 1.00% o.w.f, exhaust temperature 95° C., process time 60 min): 2.86 Log
